Ki data for 13 molecules are collected here from ChEMBL document CHEMBL4219212, “Synthesis of 3-(3-hydroxyphenyl)pyrrolidine dopamine D3 receptor ligands with extended functionality for probing the secondary binding pocket” (Bioorg Med Chem Lett, 2018).

One experiment concerns the target D(1A) dopamine receptor (Homo sapiens, UniProt P21728). Nature of the experiment: Displacement of [3H]SCH23390 from human dopamine D1 receptor expressed in HEK293T cell membranes by radioligand binding assay. On the technique in general: Displacement assays read how much labelled ligand stays bound in the presence of the test substance.
The target of experiment [1] is T1, 5-hydroxytryptamine receptor 1A (Homo sapiens, UniProt P08908).
T1 sequence (P08908 whole entry): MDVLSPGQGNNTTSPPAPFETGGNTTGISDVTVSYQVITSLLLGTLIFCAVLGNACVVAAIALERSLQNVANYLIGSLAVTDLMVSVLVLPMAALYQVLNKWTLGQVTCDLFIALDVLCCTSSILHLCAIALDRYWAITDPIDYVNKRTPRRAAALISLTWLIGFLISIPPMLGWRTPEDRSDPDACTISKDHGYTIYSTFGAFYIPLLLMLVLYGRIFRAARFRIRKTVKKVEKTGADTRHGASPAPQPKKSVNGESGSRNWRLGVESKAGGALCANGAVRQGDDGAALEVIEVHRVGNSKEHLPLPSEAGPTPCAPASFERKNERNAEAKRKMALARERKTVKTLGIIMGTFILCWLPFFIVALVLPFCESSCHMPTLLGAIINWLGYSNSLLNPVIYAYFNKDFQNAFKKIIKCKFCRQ
Nature of the experiment: Displacement of [3H]-Way100635 from 5HT1A receptor (unknown origin) expressed in stable CHO cell membranes by radioligand binding assay.

In the next experiment the target is D(2) dopamine receptor (Homo sapiens, UniProt P14416). Nature of the experiment: Binding affinity to human dopamine D2 receptor.
Another experiment concerns the target D(3) dopamine receptor (Homo sapiens, UniProt P35462). Nature of the experiment: Binding affinity to human dopamine D3 receptor.

Chain of D(1A) dopamine receptor (P21728 whole entry): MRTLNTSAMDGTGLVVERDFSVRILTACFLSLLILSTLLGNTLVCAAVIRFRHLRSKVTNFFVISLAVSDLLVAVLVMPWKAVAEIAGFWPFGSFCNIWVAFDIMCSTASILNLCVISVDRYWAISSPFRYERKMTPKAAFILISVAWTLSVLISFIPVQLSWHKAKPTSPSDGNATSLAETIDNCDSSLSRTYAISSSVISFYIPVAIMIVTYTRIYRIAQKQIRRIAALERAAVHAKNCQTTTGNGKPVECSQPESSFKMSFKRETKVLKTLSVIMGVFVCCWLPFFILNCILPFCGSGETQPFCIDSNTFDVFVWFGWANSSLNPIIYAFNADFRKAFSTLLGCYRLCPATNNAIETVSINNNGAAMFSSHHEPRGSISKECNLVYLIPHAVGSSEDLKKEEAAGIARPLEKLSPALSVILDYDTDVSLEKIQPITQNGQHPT
Chain of D(2) dopamine receptor (P14416 whole entry): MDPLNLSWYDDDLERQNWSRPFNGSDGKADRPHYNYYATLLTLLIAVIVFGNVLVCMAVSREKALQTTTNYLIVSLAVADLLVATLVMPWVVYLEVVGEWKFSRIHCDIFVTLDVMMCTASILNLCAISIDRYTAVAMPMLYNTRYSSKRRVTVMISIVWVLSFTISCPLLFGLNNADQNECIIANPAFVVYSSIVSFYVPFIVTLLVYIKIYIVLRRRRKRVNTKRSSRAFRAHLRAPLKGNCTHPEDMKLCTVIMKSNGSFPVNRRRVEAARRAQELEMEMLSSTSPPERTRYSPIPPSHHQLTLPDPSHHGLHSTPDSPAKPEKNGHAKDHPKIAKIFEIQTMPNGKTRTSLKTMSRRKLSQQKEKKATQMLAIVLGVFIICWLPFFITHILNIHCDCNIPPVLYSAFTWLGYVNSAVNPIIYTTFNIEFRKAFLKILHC
Chain of D(3) dopamine receptor (P35462 whole entry): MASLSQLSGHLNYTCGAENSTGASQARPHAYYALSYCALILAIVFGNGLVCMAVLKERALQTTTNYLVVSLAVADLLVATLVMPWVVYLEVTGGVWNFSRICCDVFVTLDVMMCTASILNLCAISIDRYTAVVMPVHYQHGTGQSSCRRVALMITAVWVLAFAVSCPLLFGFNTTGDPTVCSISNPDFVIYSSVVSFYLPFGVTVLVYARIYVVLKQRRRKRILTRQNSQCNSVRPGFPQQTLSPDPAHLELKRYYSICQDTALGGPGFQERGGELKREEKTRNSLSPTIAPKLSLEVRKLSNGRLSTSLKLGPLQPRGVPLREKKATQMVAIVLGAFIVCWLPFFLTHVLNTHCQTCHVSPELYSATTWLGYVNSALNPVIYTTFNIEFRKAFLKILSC

Usually Ki stands for a measure of affinity in units of concentration, obtained from inhibition or displacement. Low values mean a stronger hold on the target, high ones a looser hold on the target. As to `CCCCCCCCN1CCC(c2cccc(O)c2)C1` (stereo not drawn), the inhibition constant Ki on D(1A) dopamine receptor turned out to be 170 nM; in experiment [1] it was 9.4 nM. The like results for `CCCCN1CCC(c2cccc(O)c2)C1` (stereo not drawn) were, in that order, 861 nM and 1810 nM. In the case of `CCCCCCCN1CCC(c2cccc(O)c2)C1` (stereo not drawn), the Ki at D(1A) dopamine receptor was determined as 597 nM; in experiment [1], 19 nM. Take `CCCCCCN1CCC(c2cccc(O)c2)C1` (stereo not drawn): the Ki was 1280 nM on D(1A) dopamine receptor and 272 nM in experiment [1].

Consider `CCCCCN1CCC(c2cccc(O)c2)C1` (stereo not drawn), for which the Ki stood at 542 nM at D(1A) dopamine receptor and 326 nM in experiment [1]. On to `CCCCCCCCCCN1CCC(c2cccc(O)c2)C1` (stereo not drawn), for which the inhibition constant (Ki) on D(1A) dopamine receptor is 128 nM; in experiment [1], 12 nM. Regarding `CCCN1CCC(c2cccc(O)c2)C1` (stereo not drawn), the Ki was 68 nM on D(2) dopamine receptor and 52 nM on D(3) dopamine receptor. Regarding `CCCCCCCCCN1CCC(c2cccc(O)c2)C1` (racemic), the Ki at D(1A) dopamine receptor came to 174 nM; in experiment [1] it was 15 nM. For the molecule `CN(C)c1ccc(C(=O)NCCCCN2CCC(c3cccc(O)c3)C2)cc1` (racemic), the affinity on D(1A) dopamine receptor corresponds to a Ki of 831 nM. Turning to `CCCCCCCCCN1CCC(c2cccc(O)c2)C1` (single isomer, unassigned; (+)), the Ki was greater than 10000 nM at D(1A) dopamine receptor and 115 nM in experiment [1].

For the molecule `CN(C)c1ccc(C(=O)NCCCCN2CCC(c3cccc(O)c3)C2)cc1` (single isomer, unassigned; (+)), the Ki at D(1A) dopamine receptor is greater than 10000 nM. For the molecule `CCCCCCCCCN1CCC(c2cccc(O)c2)C1` (single isomer, unassigned; (-)), the Ki on D(1A) dopamine receptor amounted to 181 nM; in experiment [1] it was 48 nM. On D(1A) dopamine receptor, `CN(C)c1ccc(C(=O)NCCCCN2CCC(c3cccc(O)c3)C2)cc1` (single isomer, unassigned; (-)) returned a Ki of 4590 nM.
